Data published in patent publication US20230097157A1, “Bicyclic Pyridin-2-one and pyrimidin-4-one Derivatives Useful As a Factor XIa Inhibitors” (Janssen Pharmaceutica NV, priority 2021, published 2023).
Like-named read-outs stand apart in the source and are kept apart here.

Experiments:
Factor XIa = Factor XIa (Homo sapiens, UniProt P03951); experiment: Factor XIa inhibition assay (FLINT) utilizing a fluorophore-quencher pair peptide substrate 5Fam-[…]-K5Tamra; assay type: biochemical; conditions: kinetic (KIN) reads, read-out: FXIa KIN Inh IC50
Summary of the method: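 Compounds were tested as 11-point 3-fold dilutions from 100 nM (2% DMSO). They were preincubated 30 min with FXIa in 50 mM Tris pH 7.5, 5 mM CaCl2, then 15 μM fluorophore-quencher peptide was added. Cleavage was followed at 485/520 nm over 30 min, and IC50 was derived by 4-parameter logistic fit.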

human plasma kallikrein = human plasma kallikrein (Homo sapiens, UniProt P03952); experiment: Kallikrein inhibition assay (FLINT) utilizing a quenched AMC peptide substrate Z-Gly-Pro-Arg-AMC; assay type: biochemical; conditions: kinetic (KIN) reads, read-out: Kallikrein KIN Inh IC50
Summary of the method: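 IC50 from a 4-parameter logistic fit of % inhibition from 11 concentrations (3-fold, top 1 μM, 2% DMSO). Compound pre-incubated 30 min with 2 nM enzyme in Tris pH 7.5, NaCl, CaCl2, BSA, CHAPS, then 50 μM AMC peptide substrate added. Fluorescence (340/440 nm) followed every 5 min for 30 min at room temperature.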

Chain of human plasma kallikrein (P03952 391-638 limits assumed): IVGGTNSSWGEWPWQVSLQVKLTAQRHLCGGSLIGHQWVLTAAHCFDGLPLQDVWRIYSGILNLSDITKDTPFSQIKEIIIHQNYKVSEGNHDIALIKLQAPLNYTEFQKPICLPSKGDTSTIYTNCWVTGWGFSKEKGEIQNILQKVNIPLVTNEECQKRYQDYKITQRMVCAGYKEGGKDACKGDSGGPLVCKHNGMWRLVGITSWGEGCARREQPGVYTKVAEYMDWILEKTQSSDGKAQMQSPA
Chain of human plasma kallikrein (P03952 20-390 partner limits assumed): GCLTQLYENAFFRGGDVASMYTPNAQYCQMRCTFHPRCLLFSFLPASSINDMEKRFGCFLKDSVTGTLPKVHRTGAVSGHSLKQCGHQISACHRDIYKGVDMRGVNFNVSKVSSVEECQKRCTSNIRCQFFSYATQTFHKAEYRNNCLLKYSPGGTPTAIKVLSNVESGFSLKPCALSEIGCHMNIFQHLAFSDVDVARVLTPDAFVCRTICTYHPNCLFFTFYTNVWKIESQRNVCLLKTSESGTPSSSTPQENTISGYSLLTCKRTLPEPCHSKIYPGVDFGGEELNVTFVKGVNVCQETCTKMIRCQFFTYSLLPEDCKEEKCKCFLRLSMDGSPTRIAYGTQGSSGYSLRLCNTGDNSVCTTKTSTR
Chain of Factor XIa (P03951 388-625 limits assumed): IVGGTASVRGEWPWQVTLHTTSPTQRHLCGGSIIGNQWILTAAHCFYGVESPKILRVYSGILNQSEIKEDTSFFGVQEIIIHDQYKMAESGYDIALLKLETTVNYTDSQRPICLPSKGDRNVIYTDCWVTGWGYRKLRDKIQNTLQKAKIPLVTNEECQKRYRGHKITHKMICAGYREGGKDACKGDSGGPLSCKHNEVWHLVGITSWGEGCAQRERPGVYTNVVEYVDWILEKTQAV
Chain of Factor XIa (P03951 19-387 partner limits assumed): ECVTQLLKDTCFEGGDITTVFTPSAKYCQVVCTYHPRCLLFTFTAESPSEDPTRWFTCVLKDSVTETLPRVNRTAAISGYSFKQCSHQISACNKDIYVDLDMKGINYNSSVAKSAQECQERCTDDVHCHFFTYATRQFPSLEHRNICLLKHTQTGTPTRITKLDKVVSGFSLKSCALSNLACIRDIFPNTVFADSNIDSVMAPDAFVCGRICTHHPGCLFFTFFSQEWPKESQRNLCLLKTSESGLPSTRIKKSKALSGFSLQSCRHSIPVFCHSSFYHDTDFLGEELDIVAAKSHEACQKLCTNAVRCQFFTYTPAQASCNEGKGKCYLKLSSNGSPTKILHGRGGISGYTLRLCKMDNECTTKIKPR

| Structure (SMILES) | IC50 (Factor XIa; values in nM) [nM] | IC50 (human plasma kallikrein; values in nM) [nM] | IC50 (human plasma kallikrein; unit μM) [nM] | IC50 (Factor XIa; unit μM) [nM] |
| --- | --- | --- | --- | --- |
| Nc1ccc(-c2cnc([C@@H]3CC4(CC4)c4cc(-c5c(-n6cnnn6)ccc(Cl)c5F)cc(=O)n43)[nH]2)c(F)n1 [Example 25, (S)-3′-(5-(6-Amino-2-fluoropyridin-3-yl)-1H-imidazol-2-yl)-7′-(3-chloro-2-fluoro-6-(1H-tetrazol-1-yl)phenyl)-2′,3′-dihydro-5′H-spiro[cyclopropane-1,1′-indolizin]-5′-one] | 0.6 | 14.1 | – | – |
| Cc1nc(N)sc1-c1cnc([C@@H]2C[C@H](C)c3cc(-c4c(-n5cnnn5)ccc(Cl)c4F)cc(=O)n32)[nH]1 [Example 26, (1S,3S)-3-(5-(2-Amino-4-methylthiazol-5-yl)-1H-imidazol-2-yl)-7-(3-chloro-2-fluoro-6-(1H-tetrazol-1-yl)phenyl)-1-methyl-2,3-dihydroindolizin-5(1H)-one] | 22.6 | – | 1300 | – |
| C[C@H]1C[C@@H](c2ncc(-c3sc(N)nc3C(F)(F)F)[nH]2)n2c1cc(-c1c(-n3cnnn3)ccc(Cl)c1F)cc2=O [Example 27, (1S,3S)-3-(5-(2-Amino-4-(trifluoromethyl)thiazol-5-yl)-1H-imidazol-2-yl)-7-(3-chloro-2-fluoro-6-(1H-tetrazol-1-yl)phenyl)-1-methyl-2,3-dihydroindolizin-5(1H)-one] | 483 | – | 2400 | – |
| C[C@H]1C[C@@H](c2ncc(-c3cnnn3C)[nH]2)n2c1cc(-c1c(-n3cnnn3)ccc(Cl)c1F)cc2=O [Example 28, (1S,3S)-7-(3-Chloro-2-fluoro-6-(1H-tetrazol-1-yl)phenyl)-1-methyl-3-(5-(1-methyl-1H-1,2,3-triazol-5-yl)-1H-Imidazol-2-yl)-2,3-dihydroindolizin-5(1H)-one] | 311 | – | 6400 | – |
| C[C@H]1C[C@@H](c2ncc(-c3ccc(N)nc3F)[nH]2)n2c1cc(-c1cc(Cl)ccc1-n1cnnn1)cc2=O [Example 29, (1S,3S)-3-[5-(6-amino-2-fluoro-3-pyridyl)-1H-imidazol-2-yl]-7-[5-chloro-2-(tetrazol-1-yl)phenyl]-1-methyl-2,3-dihydro-1H-indolizin-5-one] | 0.5 | 39.5 | – | – |
| C[C@H]1C[C@@H](c2[nH]c(-c3ccc(N)nc3F)nc2F)n2c1cc(-c1c(-n3cnnn3)ccc(Cl)c1F)cc2=O [Example 34, (1S,3S)-3-(2-(6-Amino-2-fluoropyridin-3-yl)-4-fluoro-1H-imidazol-5-yl)-7-(3-chloro-2-fluoro-6-(1H-tetrazol-1-yl)phenyl)-1-methyl-2,3-dihydroindolizin-5(1H)-one] | 0.1 | 7.3 | – | – |
| Cc1nc(N)ccc1-c1cnc([C@@H]2C[C@@H](C)c3cc(-c4c(-n5cnnn5)ccc(Cl)c4F)cc(=O)n32)[nH]1 [Example 50, (1R,3S)-3-(5-(6-Amino-2-methylpyridin-3-yl)-1H-imidazol-2-yl)-7-(3-chloro-2-fluoro-6-(1H-tetrazol-1-yl)phenyl)-1-methyl-2,3-dihydroindolizin-5(1H)-one] | 1.4 | 16 | – | – |
| C[C@@H]1C[C@@H](c2ncc(-c3ccc(N)nc3Cl)[nH]2)n2c1cc(-c1c(-n3cnnn3)ccc(Cl)c1F)cc2=O [Example 58, (1R,3S)-3-(5-(6-Amino-2-chloropyridin-3-yl)-1H-imidazol-2-yl)-7-(3-chloro-2-fluoro-6-(1H-tetrazol-1-yl)phenyl)-1-methyl-2,3-dihydroindolizin-5(1H)-one] | 0.4 | 3.1 | – | – |
| COC(=O)Nc1ccc(-c2cnc([C@@H]3C[C@H](C)c4cc(-c5c(-n6cnnn6)ccc(Cl)c5F)cc(=O)n43)[nH]2)cc1 [Example 63, Methyl(4-(2-((1S,3S)-7-(3-chloro-2-fluoro-6-(1H-tetrazol-1-yl)phenyl)-1-methyl-5-oxo-1,2,3,5-tetrahydroindolizin-3-yl)-1H-imidazol-5-yl)phenyl)carbamate] | 0.2 | 3.5 | – | – |
| COC(=O)Nc1ccc(-c2cnc([C@@H]3C[C@@H](C)c4cc(-c5c(-n6cnnn6)ccc(Cl)c5F)cc(=O)n43)[nH]2)cc1 [Example 65, Methyl(4-(2-((1R,3S)-7-(3-chloro-2-fluoro-6-(1H-tetrazol-1-yl)phenyl)-1-methyl-5-oxo-1,2,3,5-tetrahydroindolizin-3-yl)-1H-imidazol-5-yl)phenyl)carbamate] | 0.6 | 1.3 | – | – |
| C[C@@H]1C[C@@H](c2ncc(-c3ccc(N)nc3F)[nH]2)n2c1cc(-c1c(-n3cnnn3)ccc(Cl)c1F)cc2=O [Example 66, (1R,3S)-3-(5-(6-Amino-2-fluoropyridin-3-yl)-1H-imidazol-2-yl)-7-(3-chloro-2-fluoro-6-(1H-tetrazol-1-yl)phenyl)-1-methyl-2,3-dihydroindolizin-5(1H)-one] | 0.4 | 3.6 | – | – |
| C[C@H]1C[C@@H](c2ncc(-c3ccc(N)nc3F)[nH]2)n2c1cc(-c1c(-n3cnnn3)ccc(Cl)c1F)cc2=O [Example 67, (1S,3S)-3-(5-(6-Amino-2-fluoropyridin-3-yl)-1H-imidazol-2-yl)-7-(3-chloro-2-fluoro-6-(1H-tetrazol-1-yl)phenyl)-1-methyl-2,3-dihydroindolizin-5(1H)-one] | 0.4 | 20.6 | – | – |
| CC1C[C@H](c2nc(-c3cnc(N)cn3)c[nH]2)n2c1nc(-c1c(-n3cc(C(F)(F)F)nn3)ccc(Cl)c1F)cc2=O (stereo partly drawn) [Example 79, (6R)-6-(4-(5-aminopyrazin-2-yl)-1H-imidazol-2-yl)-2-(3-chloro-2-fluoro-6-(4-(trifluoromethyl)-1H-1,2,3-triazol-1-yl)phenyl)-8-methyl-7,8-dihydropyrrolo[1,2-a]pyrimidin-4(6H)-one] | 63.5 | 324 | – | – |
| CC1C[C@@H](c2nc(-c3cnc(N)cn3)c[nH]2)n2c1nc(-c1c(-n3cc(C(F)(F)F)nn3)ccc(Cl)c1F)cc2=O (stereo partly drawn) [Example 80, (6S)-6-(4-(5-aminopyrazin-2-yl)-1H-imidazol-2-yl)-2-(3-chloro-2-fluoro-6-(4-(trifluoromethyl)-1H-1,2,3-triazol-1-yl)phenyl)-8-methyl-7,8-dihydropyrrolo[1,2-a]pyrimidin-4(6H)-one] | 4.4 | ~236 | – | – |
| Nc1nsc2cc(-c3cnc([C@@H]4CC5(CC5)c5nc(-c6c(-n7cnnn7)ccc(Cl)c6F)cc(=O)n54)[nH]3)ccc12 [Example 81, (S)-6′-(5-(3-Aminobenzo[d]isothiazol-6-yl)-1H-imidazol-2-yl)-2′-(3-chloro-2-fluoro-6-(1H-tetrazol-1-yl)phenyl)-6′,7′-dihydro-4′H-spiro[cyclopropane-1,8′-pyrrolo[1,2-a]pyrimidin]-4′-one] | 0.6 | 0.9 | – | – |
| Nc1nsc2cc(-c3cnc([C@H]4CC5(CC5)c5nc(-c6c(-n7cnnn7)ccc(Cl)c6F)cc(=O)n54)[nH]3)ccc12 [Example 82, (R)-6′-(5-(3-Aminobenzo[d]isothiazol-6-yl)-1H-imidazol-2-yl)-2′-(3-chloro-2-fluoro-6-(1H-tetrazol-1-yl)phenyl)-6′,7′-dihydro-4′H-spiro[cyclopropane-1,8′-pyrrolo[1,2-a]pyrimidin]-4′-one] | 53.8 | 142 | – | – |
| C[C@H]1C[C@@H](c2nc(-c3ncc(N)nc3Cl)c[nH]2)n2c1nc(-c1c(-n3cnnn3)ccc(Cl)c1F)cc2=O [Example 93, (6S,8S)-6-(4-(5-Amino-3-chloropyrazin-2-yl)-1H-imidazol-2-yl)-2-(3-chloro-2-fluoro-6-(1H-tetrazol-1-yl)phenyl)-8-methyl-7,8-dihydropyrrolo[1,2-a]pyrimidin-4(6H)-one] | 0.5 | 20.8 | – | – |
| Cc1nc(N)cnc1-c1cnc([C@@H]2CC(C)c3nc(-c4c(-n5cnnn5)ccc(Cl)c4F)cc(=O)n32)[nH]1 (stereo partly drawn) [Example 95, (6S)-6-(5-(5-Amino-3-methylpyrazin-2-yl)-1H-imidazol-2-yl)-2-(3-chloro-2-fluoro-6-(1H-tetrazol-1-yl)phenyl)-8-methyl-7,8-dihydropyrrolo[1,2-a]pyrimidin-4(6H)-one] | 5.3 | 71.7 | – | – |
| Cc1nc(N)cnc1-c1cnc([C@H]2CC(C)c3nc(-c4c(-n5cnnn5)ccc(Cl)c4F)cc(=O)n32)[nH]1 (stereo partly drawn) [Example 96, (6R)-6-(5-(5-Amino-3-methylpyrazin-2-yl)-1H-imidazol-2-yl)-2-(3-chloro-2-fluoro-6-(1H-tetrazol-1-yl)phenyl)-8-methyl-7,8-dihydropyrrolo[1,2-a]pyrimidin-4(6H)-one] | > 100 | – | > 1000 | – |
| Cc1nc(N)sc1-c1cnc([C@@H]2CC3(CC3)c3nc(-c4c(-n5cnnn5)ccc(Cl)c4F)cc(=O)n32)[nH]1 [Example 131, (S)-6′-(5-(2-Amino-4-methylthiazol-5-yl)-1H-imidazol-2-yl)-2′-(3-chloro-2-fluoro-6-(1H-tetrazol-1-yl)phenyl)-6′,7′-dihydro-4′H-spiro[cyclopropane-1,8′-pyrrolo[1,2-a]pyrimidin]-4′-one] | 92.2 | 669 | – | – |
| Cc1nc(N)sc1-c1cnc([C@H]2CC3(CC3)c3nc(-c4c(-n5cnnn5)ccc(Cl)c4F)cc(=O)n32)[nH]1 [Example 132, (R)-6′-(5-(2-Amino-4-methylthiazol-5-yl)-1H-imidazol-2-yl)-2′-(3-chloro-2-fluoro-6-(1H-tetrazol-1-yl)phenyl)-6′,7′-dihydro-4′H-spiro[cyclopropane-1,8′-pyrrolo[1,2-a]pyrimidin]-4′-one] | – | – | > 10000 | > 10000 |
